Where two headings read alike, the source gives them in different places.
Columns and labels:
[1] = Cyclic voltammetry of Co(PAA)n+ carrier compounds; assay type: physicochemical; design: key to ΔE / EPA / EPC: N.O.: not observed due to low electrochemical activity
Description: Cyclic voltammentry experiments were performed under nitrogen or iar for the unoxygenated or oxygenated carrier compounds, respectively, in a cell having a platinum wire auxiliary electrode, a silver-silver chloride reference electrode, and suitable working electrode. The potential between the auxiliary and working electrodes was varied with a Princeton Applied Research (Princeton, N.J.) Scanning Potentiostate at 50 mV/s from a suitable initial with a suitable initial scan direction (Scan Dir.), depending on the electrochemical potentials if interest. All solutions contained 1 mM CoCl2, 1 mM or 1.5 mM PAA, and a supporting electrolyte, and were buffered to a suitable pH, usually about the initial working pH.
Cyclic voltammetry enables the estimation of anode (EPA) and cathode (EPC) half cell potentials, the cell potential ΔE=(EPA -EPC), and an approximate formal reaction potential […]. In addition, estimates of the rate of electron transfer to a particular electrode and electrochemical reversibility of the reaction can be obtained.

[2] = Potentiometric pH titration of polyalkylamines: protonation constants (basicity); assay type: physicochemical; conditions: 25°±0.1° C., ca. 1.5 mM PAA; Ref. 3 determined by applicants
Source text: the equilibrium constants for successive protonations of the PAA compounds are defined by
KHi =[PAA(H^+)i ]/[PAA(H^+)i-1 ] [H^+ ](10)
Where spectrophotometric characterization of a particular cobalt carrier compound has proven satisfactory, both the polyalkylamine and the cobalt carrier compound are characterized by a set of potentiometric pH titrations to determine the basicity of the ligating atoms, the formation constants KML and KMLH, and the apparent oxygen binding equilibrium constants.
Potentiometric titrations are performed using a Fisher or Cole-Palmer pH meter in a sealed, jacketed glass cell equipped with glass and calomel electrodes and with provisions for performing measurements under oxygen-free conditions. The cell is kept at a constant temperature of 25°±0.1° C. by circulating water from a thermostated bath through the cell jacket. The electrodes and pH meter are standardized with commercially available standard buffer solutions (Fisher Scientific). The polyalkylamine ligands and cobalt carrier compounds were each titrated potentiometrically by incrementally adding standard potassium hydroxide solution and recording the pH of the solution after each addition of base. Titrations of the cobalt carrier compounds are carried out under prepurified nitrogen or argon; titrations of oxygenated carrier compounds are performed under oxygen treated with Ascarite to remove carbon dioxide.
All solutions contained ca. 1.5 mM PAA; for titrations of cobalt complexes, the solutions contained, in addition, 1.5 mM CoCl2.
Typical results obtained as outlined above from pH titrations of selected polyalkylamines, cobalt carrier compounds, and oxygen complexes of cobalt carrier compounds are graphically depicted in FIGS. 2, 3, and 4, and summarized in Table III. The values shown in Table III, defined by equations (6)-(8) and (10). above, were derived either by direct measurement from the titration curves obtained, or determined by the iterative best fit of the data to a computer program such as that described by Harris, et al., Inorganic Chemistry, vol. 17, p. 889, 890 (1978). Generally, although the latter values are considered to be more reliable, values obtained by either methods are approximately the same and sufficient for the present evaluation.

[3] = UV-visible spectroscopic evaluation of oxygen complex formation by cobalt carrier compounds; assay type: binding
Source text: Initially, solutions of particular carrier compounds are monitored by UV-visible spectroscopy to determine whether the carrier compound forms oxygen complexes of sufficient stability as to be potentially useful in processes according to the present invention. UV-visible spectra of carrier compounds are also observed as a function of the pH to determine the pH range, if any, over which the carrier compounds bind oxygen without decomposition. The initial pH for use in further experiments (the "Working pH") is defined as one pH unit above that at which the proportion of carrier compound-oxygen complex is about 90% or more of the maximum formed under ca. 0.2 atm oxygen, as determined by this spectroscopic examination. […] An initial working pH can also be determined from potentiometric experiments on the oxygen complexes of cobalt carrier compounds, as will be discussed below.
The necessary UV and visible spectra necessary for this evaluation are obtained with any of a variety of commercially available spectrophotometers. The solution to be measured is prepared in or transferred to a suitable quartz cell with provision for the exclusion of oxygen. […] Spectra are then recorded under both oxygen free and oxygenated conditions at each of the desired pH values.

[4] = literature, Ref. 1, 2 or 4; cited from earlier work
[5] = design: key to Log K02 (symbol): *: Oxygen complex is unstable.; **: No oxygen complex observed; conditions: cobalt complex, literature, cited from earlier work; for Log K02: dimeric oxygen complex, Ref. 1 or 4
[6] = ox, 1.0 mM PAA, pH 12.0, 0.5M KCl/0.1M K2HPO4, glassy carbon, Einitial +0.19 V, scan -
[7] = deox, 1.5 mM PAA, pH 3.0, 0.5M KCl/0.1M K2HPO4, gold, Einitial -0.3 V, scan +
[8] = ox, 1.0 mM PAA, pH 9.0, 0.5M NaCl/0.1M Borate, gold, Einitial +0.12 V, scan +
[9] = ox, 1.0 mM PAA, pH 6.0, 0.5M KCl/0.1M K2HPO4, glassy carbon, Einitial +0.1 V, scan +
[10] = deox, 1.0 mM PAA, pH 10.1, 0.5M KCl/0.1M K2HPO4, glassy carbon, Einitial +0.15 V, scan -
[11] = ox, 1.0 mM PAA, pH 10.1, 0.5M KCl/0.1M K2HPO4, glassy carbon, Einitial +0.1 V, scan +
[12] = deox, 1.5 mM PAA, pH 9.0, 0.5M NaCl/0.1M Borate, glassy carbon, Einitial -0.3 V, scan +
[13] = ox, 1.5 mM PAA, pH 9.0, 0.5M NaCl/0.1M Borate, glassy carbon, Einitial -0.3 V, scan +
[14] = deox, 1.0 mM PAA, pH 7.6, 0.5M NaCl/0.1M K2HPO4, gold, Einitial -0.3 V, scan +
[15] = ox, 1.0 mM PAA, pH 7.6, 0.5M KCl/0.1M K2HPO4, gold, Einitial +0.3 V, scan +
[16] = ox, 1.0 mM PAA, pH 3.0, 0.5M KCl/0.1M K2HPO4, glassy carbon, Einitial -0.05 V, scan +
[17] = deox, 1.0 mM PAA, pH 5.93, 0.5M KCl/0.1M K2HPO4, glassy carbon, Einitial +0.1 V, scan +
[18] = ox, 1.0 mM PAA, pH 5.93, 0.5M KCl/0.1M K2HPO4, glassy carbon, Einitial +0.1 V, scan +

| Structure (SMILES) | Log K1 [2] | Log K2 [2] | Log K3 [2] | Log K4 [2] | Log K1 [4] | Log K2 [4] | Log K3 [4] | Log K4 [4] | Log K02 [5] | other results |
| --- | --- | --- | --- | --- | --- | --- | --- | --- | --- | --- |
| CN(CCCNCc1ccccn1)CCCNCc1ccccn1 [compound 76] | 9.15 | 7.20 | 5.79 | 3.40 |  |  |  |  |  | EPA [1, 6]: 0.25 V; EPC [1, 6]: -0.35 V; ΔE [1, 6]: 0.6 V |
| c1ccc(CNCc2cccc(CNCc3ccccn3)n2)nc1 [PAA No. 21, 2,6-Bis(l-(3-(2-Pyridyl)-2-Azapropyl))Pyridine] |  |  |  |  |  |  |  |  |  | oxidation of the cobalt ion of the Co(II) complex ([3]; Co(II) complex of the PAA): relatively rapid, irreversible oxidation of the cobalt ion to Co(III) |
| Cc1cccc(CNCCCNCCCNCc2cccc(C)n2)n1 [compound 81] | 9.44 | 7.40 | 6.25 | 3.40 |  |  |  |  |  |  |
| c1ccc(CNCCNCCNCc2ccccn2)nc1 [compound 62] | 8.91 | 6.95 | 3.64 |  | 8.88 | 7.04 | 3.82 | 1.44 | 11.4 | EPA [1, 7]: 0.0 V; EPC [1, 7]: -0.1 V; E° [1, 7]: -0.05 V; ΔE [1, 7]: 0.1 V; EPA [1, 8]: 0.75 V; EPC [1, 8]: -0.55 V; ΔE [1, 8]: 1.3 V |
| c1ccc(CNCc2cccc(CNCc3ccccn3)n2)nc1 [compound 21] | 7.74 | 6.69 | 2.95 |  | 7.55 | 6.86 | 3.2 | 2.9 |  | Log K02 (symbol) ([5]; Ref. 2): * |
| c1nc(CNCCNCCNCc2c[nH]cn2)c[nH]1 [compound 75] | 9.15 | 8.03 | 4.92 | 3.91 | 9.22 | 8.18 | 4.91 | 3.90 |  | Log K5 [4]: 2.92 |
| Cc1cccc(CNCCNCCNCc2cccc(C)n2)n1 [compound 80] | 8.52 | 6.72 | 4.1 | 3.28 |  |  |  |  |  | Log K5 [2]: 2.86 |
| c1ccc(CCNCc2cccc(CNCCc3ccccn3)n2)nc1 [compound 63] | 8.75 | 7.61 | 3.81 |  |  |  |  |  |  | EPA [1, 9]: N.O.; EPC [1, 9]: N.O.; ΔE [1, 9]: N.O. |
| c1c[nH]c(CNCCCNCCCNCc2ncc[nH]2)n1 [compound 73] |  |  |  |  | 9.76 | 7.22 | 6.51 | 3.92 | 8.63 | Log K5 [4]: 3.29 |
| c1ccc(CNCCCCNCCCNCc2ccccn2)nc1 [compound 78] | 9.36 | 7.69 | 6.60 |  |  |  |  |  |  | EPA [1, 10]: 0.18 V; EPC [1, 10]: 0.1 V; E° [1, 10]: 0.14 V; ΔE [1, 10]: 0.08 V; EPA [1, 11]: 0.185 V; EPC [1, 11]: 0.055 V; E° [1, 11]: 0.12 V; ΔE [1, 11]: 0.13 V |
| CN(CCCNCc1ccccn1)CCCNCc1ccccn1 [PAA No. 76, 1,11-Bis(2-Pyridyl)-6-Methyl-2,6,10-Triazaundecane] |  |  |  |  |  |  |  |  |  | oxygen binding of the cobalt complex ([3]; cobalt complex of the PAA, spectrophotometric analysis, under conditions of interest): does not appear to bind oxygen |
| NCCNCCNCCNCCN [compound 33] |  |  |  |  | 9.85 | 9.27 | 8.19 | 5.08 | 15.83 | Log K5 [4]: 3.43; EPA [1, 12]: -0.33 V; EPC [1, 12]: -0.45 V; E° [1, 12]: -0.39 V; ΔE [1, 12]: 0.12 V; EPA [1, 13]: 0.7 V; EPC [1, 13]: -0.5 V; ΔE [1, 13]: 1.2 V |
| c1ccc(CNCCCNCCCNCc2ccccn2)nc1 [compound 64] | 9.54 | 7.44 | 6.34 |  | 9.92 | 7.63 | 6.76 | 1.79 | 7.7 | EPA [1, 14]: 0.4 V; EPC [1, 14]: -0.45 V; E° [1, 14]: -0.05 V; ΔE [1, 14]: 0.85 V; EPA [1, 15]: 0.08 V; EPC [1, 15]: -0.4 V; ΔE [1, 15]: 1.2 V |
| NCCNCc1cccc(CNCCN)n1 [compound 69] | 9.31 | 8.6 | 5.9 | 4.74 |  |  |  |  |  | EPA [1, 16]: 0.5 V; EPC [1, 16]: -0.2 V; ΔE [1, 16]: 0.7 V |
| c1nc(CNCCCNCCCNCc2c[nH]cn2)c[nH]1 [compound 74] | 9.75 | 8.58 | 7.2 | 4.75 | 10.12 | 8.62 | 7.36 | 4.51 | 9.49 | Log K5 [4]: 3.82; Log K5 [2]: 3.75 |
| c1ccc(CNCCCNCCNCc2ccccn2)nc1 [compound 72] | 8.6 | 6.75 | 4.76 |  |  |  |  |  |  | EPA [1, 17]: 0.03 V; EPC [1, 17]: 0.66 V; E° [1, 17]: -0.02 V; ΔE [1, 17]: 0.11 V; EPA [1, 18]: 0.66 V; EPC [1, 18]: -0.07 V; ΔE [1, 18]: 0.73 V |

From patent publication US5410052A, “Symmetrical and unsymmetrical polyalkylamine metal complexes for ligand extraction and generation” (The Regents of the University of California, priority 1990, dated 1995)
